Test: xn = mol fraction of the nth substance listed
Conditions: 100 kPa, Liquid; for viscosity: Capillary tube (Ostwald / Ubbelohde) method; for mass density: Vibrating tube method

O=C1CCCCCO1 [6-hexanolactone] + CCCC[n+]1ccn(C)c1.O=S(=O)([N-]S(=O)(=O)C(F)(F)F)C(F)(F)F
Conditions	mass density [kg/m3]	viscosity [mPa·s]
293.15 K, x2 = 0	1075.92	6.63
293.15 K, x2 = 0.05	1122.04	7.97
293.15 K, x2 = 0.1002	1161.48	9.67
293.15 K, x2 = 0.1505	1195.51	11.48
293.15 K, x2 = 0.1985	1223.86	13.4
293.15 K, x2 = 0.3001	1273.58	18.05
293.15 K, x2 = 0.3987	1311.9	23.25
293.15 K, x2 = 0.4903	1341.13	28.59
293.15 K, x2 = 0.6309	1377.36	37.38
293.15 K, x2 = 0.6988	1391.97	41.8
293.15 K, x2 = 0.8042	1411.81	48.8
293.15 K, x2 = 0.883	1424.76	54.08
298.15 K, x2 = 0	1071.67	5.76
298.15 K, x2 = 0.05	1117.68	6.87
298.15 K, x2 = 0.1002	1157.04	8.29
298.15 K, x2 = 0.1505	1191	9.78
298.15 K, x2 = 0.1985	1219.3	11.34
298.15 K, x2 = 0.3001	1268.92	15.14
298.15 K, x2 = 0.3987	1307.17	19.36
298.15 K, x2 = 0.4903	1336.35	23.66
298.15 K, x2 = 0.6309	1372.52	30.61
298.15 K, x2 = 0.6988	1387.11	34.05
298.15 K, x2 = 0.8042	1406.92	39.48
298.15 K, x2 = 0.883	1419.85	43.58
303.15 K, x2 = 0	1067.41	5.04
303.15 K, x2 = 0.05	1113.3	5.97
303.15 K, x2 = 0.1002	1152.56	7.18
303.15 K, x2 = 0.1505	1186.44	8.42
303.15 K, x2 = 0.1985	1214.67	9.71
303.15 K, x2 = 0.3001	1264.18	12.78
303.15 K, x2 = 0.3987	1302.35	16.15
303.15 K, x2 = 0.4903	1331.47	19.54
303.15 K, x2 = 0.6309	1367.57	25.2
303.15 K, x2 = 0.6988	1382.12	28.07
303.15 K, x2 = 0.8042	1401.89	32.58
303.15 K, x2 = 0.883	1414.8	36.02
308.15 K, x2 = 0	1063.15	4.44
308.15 K, x2 = 0.05	1108.94	5.22
308.15 K, x2 = 0.1002	1148.11	6.25
308.15 K, x2 = 0.1505	1181.92	7.26
308.15 K, x2 = 0.1985	1210.09	8.36
308.15 K, x2 = 0.3001	1259.51	10.91
308.15 K, x2 = 0.3987	1297.6	13.67
308.15 K, x2 = 0.4903	1326.67	16.42
308.15 K, x2 = 0.6309	1362.7	20.93
308.15 K, x2 = 0.6988	1377.23	23.21
308.15 K, x2 = 0.8042	1396.97	26.77
308.15 K, x2 = 0.883	1409.86	29.49
313.15 K, x2 = 0	1058.9	3.95
313.15 K, x2 = 0.05	1104.57	4.61
313.15 K, x2 = 0.1002	1143.65	5.5
313.15 K, x2 = 0.1505	1177.38	6.41
313.15 K, x2 = 0.1985	1205.49	7.35
313.15 K, x2 = 0.3001	1254.8	9.43
313.15 K, x2 = 0.3987	1292.82	11.71
313.15 K, x2 = 0.4903	1321.83	14.07
313.15 K, x2 = 0.6309	1357.8	17.79
313.15 K, x2 = 0.6988	1372.3	19.67
313.15 K, x2 = 0.8042	1392.01	22.59
313.15 K, x2 = 0.883	1404.86	24.85
318.15 K, x2 = 0	1054.65	3.53
318.15 K, x2 = 0.05	1100.22	4.07
318.15 K, x2 = 0.1002	1139.2	4.87
318.15 K, x2 = 0.1505	1172.86	5.67
318.15 K, x2 = 0.1985	1200.91	6.5
318.15 K, x2 = 0.3001	1250.12	8.31
318.15 K, x2 = 0.3987	1288.06	10.27
318.15 K, x2 = 0.4903	1317.02	12.18
318.15 K, x2 = 0.6309	1352.92	15.24
318.15 K, x2 = 0.6988	1367.39	16.82
318.15 K, x2 = 0.8042	1387.06	19.24
318.15 K, x2 = 0.883	1399.89	21.07
323.15 K, x2 = 0	1050.4	3.17
323.15 K, x2 = 0.05	1095.86	3.69
323.15 K, x2 = 0.1002	1134.75	4.36
323.15 K, x2 = 0.1505	1168.33	5.03
323.15 K, x2 = 0.1985	1196.32	5.73
323.15 K, x2 = 0.3001	1245.42	7.26
323.15 K, x2 = 0.3987	1283.28	8.9
323.15 K, x2 = 0.4903	1312.18	10.53
323.15 K, x2 = 0.6309	1348.01	13.14
323.15 K, x2 = 0.6988	1362.45	14.49
323.15 K, x2 = 0.8042	1382.08	16.64
323.15 K, x2 = 0.883	1394.89	18.26

Reference: the NIST ThermoML archive (doi:10.1016/j.jct.2016.12.032)
